Experimental data as given in patent US6635250B2, “Use of certain metalloproteinase inhibitors for treating nerve disorders mediated by nucleus pulpsus” (A+ Science AB (publ), priority 1998, dated 2003).

Legend:
[1] = test system: inducible nitrogen oxide synthetase; conditions: cited from earlier work
[2] = test system: nerve roots; conditions: cited from earlier work
[3] = test system: sacrococcygeal cauda equina; assay: Series-3: nerve root conduction velocity seven days after autologous nucleus pulposus application; type: in vivo; conditions: pig, systemic treatment
Method: Series-3: Thirteen pigs had autologous nucleus pulposus placed onto their sacrococcygeal cauda equina similar to series-2. Five pigs (bodyweight 25 kg) received REMICADE® (infliximab) 100 mg i.v. preoperatively, and 8 pigs received ENBREL® (etanercept) 12.5 mg s.c. preoperatively and additionally 12.5 mg s.c. three days after the operation. Seven days after the nucleus pulposus-application the nerve root conduction velocity was determined over the application zone by local electrical stimulation according to series-2. Series-3: Thirteen pigs had autologous nucleus pulposus placed onto their sacrococcygeal cauda equina similar to series-2. […] Seven days after the nucleus pulposus-application the nerve root conduction velocity was determined over the application zone by local electrical stimulation according to series-2. […] The statistical difference between the groups, infliximab, and etanercept, nucleus pulposus without treatment (positive control from previous data) and application of retroperitoneal fat (negative control from previous data) was assessed by using ANOVA and Fisher's PLSD at 5%.

Compound	block of nucleus pulposus-related effects [2]	block of nucleus pulposus induced nerve injury (nerve conduction velocity) [3]	other results
N=C(N)NN [Aminoguanidine]	–	–	inhibition of release of nitrogen oxide (NO) at nerve root injuries [1]: inhibit the release of nitrogen oxide (NO)
COc1ccc2c(c1)c(CC(=O)O)c(C)n2C(=O)c1ccc(Cl)cc1 [indomethacin]	slightly less efficiently	–	–
CCN(CC)CC(=O)Nc1c(C)cccc1C [lidocaine]	slightly less efficiently	–	–
etanercept [EMBREL ®]	–	blocked the nucleus pulposus induced nerve injury efficiently	–
infliximab [REMICADE ®]	–	blocked the nucleus pulposus induced nerve injury efficiently	–
